# Test results from PMC12638379, “An innovative approach to development of new pyrazolylquinolin-2-one hybrids as dual EGFR and BRAF^V600E inhibitors” (Molecular Diversity, 2025).
# Entries after “also recorded” stand apart in the source; their conditions may differ.
# Key:
# [1] = tested on: HOP-92 cells; assay: Cell cycle analysis (propidium iodide flow cytometry); assay type: cell-based, human
# Excerpt: Research has been done on how the most powerful antitumor compound, 4e, affects the HOP-92 cell cycle’s growth and apoptosis.
# Researcher : Dr.Mohamed Hawas email: mohhawwas80@gmail.com mob. 01151345909 Assay : Cell Cycle Analysis mohamedhassan.pharm.ast@azhr.edu.eg Samples : 02 samplescell line : ---Ref. : ---Date : 00-00-2022Reader : BD FACSCaliburKit used : ab139418_Propidium Iodide Flow Cytometry Kit/BDSolvent : DMSOAssay samples : Cell culture
# [2] = tested on: HOP-92 cells; assay: Annexin V-FITC/PI apoptosis assay; assay type: cell-based, human
# Protocol: Using the Annexin V-FITC/PI test, the tendency of compound 4e to cause apoptosis and its potential association with cytotoxic action were evaluated. The cells were labeled with annexin V-FITC/PI and cultured for 24 h to detect any signs of apoptosis. […] According to research on early and late apoptosis and DNA content (Figs. 9, 10), 4e with 3.4% necrosis is probably going to result in a large amount of apoptosis (Table 5 and Fig. 10).
# Cell apoptosis were analyzed by the Annexin V-FITC Apoptosis Detection Kit (BioVision Research Products, USA). Thereafter, 1-5 x 10^5 cells was collected by centrifugation and resuspend in 500 μl of 1X Binding Buffer. Added 5 μl of Annexin V-FITC and 5 μl of propidium iodide (PI […], optional.). The cells incubated at room temperature for 5 min in the dark;Analyzed by Annexin V-FITC binding flow cytometric method (Ex = 488 nm; Em = 530 nm) usingFITC signal detector (usually FL1) and PI staining by the phycoerythrin emissionsignal detector (usually FL2).For adherent cells, we gently trypsinized and washed cells once with serum-containing mediabefore incubation with Annexin V-FITC (A.3-5).
# [3] = tested on: normal cell line WI-38; details: human, 0.4 µM
Structure (SMILES),DNA content Comment ([1]; HOP92 cells),"DNA content %G2/M ([1]; HOP92 cells, control 16.08) [%]","DNA content %S ([1]; HOP92 cells, control 35.66) [%]","DNA content %G0-G1 ([1]; HOP92 cells, control 48.26) [%]","Comment (cell cycle arrest) ([1]; HOP-92, 24 h at IC50)","DNA content % G0–G1 ([1]; HOP-92, 24 h at IC50) [%]","DNA content %G2/M ([1]; HOP-92, 24 h at IC50) [%]","DNA content %S ([1]; HOP-92, 24 h at IC50) [%]","Apoptosis Late ([2]; HOP92 cells, control 0.15)","Apoptosis Early ([2]; HOP92 cells, control 0.69)","Necrosis ([2]; HOP92 cells, control 1.3)","Apoptosis Total ([2]; HOP92 cells, control 2.14)","Apoptosis Early ([2]; HOP-92, 24 h at IC50) [%]","Apoptosis Late ([2]; HOP-92, 24 h at IC50) [%]","Apoptosis Total ([2]; HOP-92, 24 h at IC50) [%]","Necrosis ([2]; HOP-92, 24 h at IC50) [%]",% viability [3] [%]
"C/C(=N\Nc1ccc(S(N)(=O)=O)cc1)c1cnn(-c2cc(=O)[nH]c3ccc(Br)cc23)c1C [Compound 4e, (E)-4-(2-(1-(1-(6-bromo-2-oxo-1,2-dihydroquinolin-4-yl)-5-methyl-1H-pyrazol-4-yl)ethylidene)hydrazineyl)benzenesulfonamide]",cell growth arrest@ G1,14.6,31.29,54.11,cell growth is arrested at the G1 phase; also recorded: cell cycle arrest at the G0-1 phase; also recorded: Cell growth arrest at G1phase,54.11,14.6,31.3,11.28,22.91,3.4,37.59,22.91,11.28,37.59,3.4,–
"CN[C@@H]1C[C@H]2O[C@@](C)([C@@H]1OC)n1c3ccccc3c3c4c(c5c6ccccc6n2c5c31)C(=O)NC4 [Staurosporine, reference compound]",–,–,–,–,–,–,–,–,–,–,–,–,–,–,–,–,84.55
